Assay results as given in ChEMBL document CHEMBL2406920, “Synthesis, biological evaluation, X-ray molecular structure and molecular docking studies of RGD mimetics containing 6-amino-2,3-dihydroisoindolin-1-one fragment as ligands of integrin αIIbβ₃” (Bioorg Med Chem, 2013).

Target: Integrin alpha-IIb/beta-3 (Homo sapiens, UniProt P05106+P08514)
Experiment: Inhibition of FITC-labeled fibrinogen binding to integrin alpha2bbeta3 receptor in human platelets by flow cytometry

Sequence of Integrin alpha-IIb/beta-3 (P05106 27-788 limits assumed): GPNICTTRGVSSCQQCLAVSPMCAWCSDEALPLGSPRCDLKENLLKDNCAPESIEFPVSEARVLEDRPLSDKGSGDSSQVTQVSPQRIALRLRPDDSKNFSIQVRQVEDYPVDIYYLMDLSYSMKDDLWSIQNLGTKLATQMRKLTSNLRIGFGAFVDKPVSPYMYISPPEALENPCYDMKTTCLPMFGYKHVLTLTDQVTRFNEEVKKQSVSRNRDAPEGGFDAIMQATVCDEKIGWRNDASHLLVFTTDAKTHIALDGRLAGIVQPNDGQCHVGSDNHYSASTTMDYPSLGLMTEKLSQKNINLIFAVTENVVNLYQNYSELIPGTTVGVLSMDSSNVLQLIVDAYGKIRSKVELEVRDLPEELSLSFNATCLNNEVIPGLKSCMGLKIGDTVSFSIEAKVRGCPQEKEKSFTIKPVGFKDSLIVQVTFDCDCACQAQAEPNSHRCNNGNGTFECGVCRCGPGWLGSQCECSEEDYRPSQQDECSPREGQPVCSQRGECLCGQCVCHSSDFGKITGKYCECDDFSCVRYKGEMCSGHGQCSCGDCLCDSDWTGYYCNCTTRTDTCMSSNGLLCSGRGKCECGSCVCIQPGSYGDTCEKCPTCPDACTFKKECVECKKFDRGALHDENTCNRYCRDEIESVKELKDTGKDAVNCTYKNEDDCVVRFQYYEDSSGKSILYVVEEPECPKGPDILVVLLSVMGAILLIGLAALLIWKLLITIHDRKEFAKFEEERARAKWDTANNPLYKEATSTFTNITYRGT
Sequence of Integrin alpha-IIb/beta-3 (P08514 32-887 limits assumed): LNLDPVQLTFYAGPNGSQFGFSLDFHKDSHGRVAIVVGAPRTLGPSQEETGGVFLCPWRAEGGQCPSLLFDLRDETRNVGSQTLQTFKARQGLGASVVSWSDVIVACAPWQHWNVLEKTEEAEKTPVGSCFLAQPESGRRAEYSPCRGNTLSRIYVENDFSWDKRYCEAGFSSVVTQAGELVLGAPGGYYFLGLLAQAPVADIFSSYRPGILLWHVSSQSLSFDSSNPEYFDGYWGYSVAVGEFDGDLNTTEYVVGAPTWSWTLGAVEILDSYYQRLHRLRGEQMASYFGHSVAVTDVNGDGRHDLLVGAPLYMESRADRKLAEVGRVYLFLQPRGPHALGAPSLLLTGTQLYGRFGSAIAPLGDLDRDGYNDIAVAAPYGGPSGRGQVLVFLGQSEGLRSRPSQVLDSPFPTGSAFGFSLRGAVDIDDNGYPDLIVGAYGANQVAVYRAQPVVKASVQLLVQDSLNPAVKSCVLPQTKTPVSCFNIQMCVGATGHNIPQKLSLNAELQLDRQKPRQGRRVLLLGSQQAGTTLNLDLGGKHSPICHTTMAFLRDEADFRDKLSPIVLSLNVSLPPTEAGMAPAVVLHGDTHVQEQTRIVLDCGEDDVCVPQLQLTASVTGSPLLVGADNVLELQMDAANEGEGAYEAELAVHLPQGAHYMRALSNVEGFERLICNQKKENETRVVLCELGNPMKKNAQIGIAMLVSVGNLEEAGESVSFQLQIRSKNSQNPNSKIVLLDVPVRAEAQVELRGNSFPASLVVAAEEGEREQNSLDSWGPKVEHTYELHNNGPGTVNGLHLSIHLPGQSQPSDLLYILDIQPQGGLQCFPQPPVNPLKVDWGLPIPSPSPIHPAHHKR
Sequence of Integrin alpha-IIb/beta-3 (P08514 891-1039 limits assumed): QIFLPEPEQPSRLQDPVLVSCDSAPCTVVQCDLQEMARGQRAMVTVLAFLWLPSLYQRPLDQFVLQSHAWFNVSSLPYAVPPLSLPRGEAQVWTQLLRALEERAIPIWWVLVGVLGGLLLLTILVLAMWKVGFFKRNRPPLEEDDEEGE

| Compound | IC50 [µM] |
| --- | --- |
| CC(CC(=O)O)N1Cc2ccc(NC(=O)CCCC3CCNCC3)cc2C1=O (racemic) | 0.35 |
| O=C(O)CN1Cc2ccc(NC(=O)c3ccc(C4CCNCC4)cc3)cc2C1=O | 0.27 |
| O=C(O)CCN1Cc2ccc(NC(=O)CCCC3CCNCC3)cc2C1=O | 0.0055 |
| O=C(O)CCN1Cc2ccc(NC(=O)c3ccc4c(c3)CNCC4)cc2C1=O | 0.0065 |
| CC(CC(=O)O)N1Cc2ccc(NC(=O)c3ccc(N4CCNCC4)cc3)cc2C1=O (racemic) | 0.037 |
| CC(CC(=O)O)N1Cc2ccc(NC(=O)c3ccc4c(c3)CNCC4)cc2C1=O (racemic) | 0.0065 |
| O=C(O)CCN1Cc2ccc(NC(=O)c3ccc(C4CCNCC4)cc3)cc2C1=O | 0.0068 |
| O=C(O)CN1Cc2ccc(NC(=O)c3ccc4c(c3)CNCC4)cc2C1=O | 1.2 |

Tested on: Platelet
Experiment: Inhibition of ADP-induced human platelet aggregation in platelet-rich plasma by Born's method
Format: functional

| Compound | IC50 [µM] |
| --- | --- |
| O=C(O)CN1Cc2ccc(NC(=O)CC3CCNCC3)cc2C1=O | 51 |
| O=C(O)CCCN1Cc2ccc(NC(=O)CC3CCNCC3)cc2C1=O | 1.8 |
| CC(CC(=O)O)N1Cc2ccc(NC(=O)CC3CCNCC3)cc2C1=O (racemic) | 2.7 |
| O=C(O)CCN1Cc2ccc(NC(=O)CC3CCNCC3)cc2C1=O | 7.4 |
| CC(CC(=O)O)N1Cc2ccc(NC(=O)c3cccc(N4CCNCC4)c3)cc2C1=O (racemic) | 62 |
| CCCCS(=O)(=O)N[C@@H](Cc1ccc(OCCCCC2CCNCC2)cc1)C(=O)O [TIROFIBAN] | 0.032 |
| O=C(O)CN1Cc2ccc(NC(=O)c3ccc(N4CCNCC4)cc3)cc2C1=O | 3.3 |
| O=C(O)CCN1Cc2ccc(NC(=O)c3cccc(N4CCNCC4)c3)cc2C1=O | 2.7 |
